Test results: PMC10178848, “Modulating fast skeletal muscle contraction protects skeletal muscle in animal models of Duchenne muscular dystrophy” (The Journal of Clinical Investigation, 2023)
pIC50: −log10 of the molar value.

Tests used:
[1] = system: dystrophic golden retriever (GRMD) dogs; experiment: Plasma CK activity in GRMD dogs; format: in vivo, dog; settings: 7-month-old GRMD, 14 days oral gavage
Experimental: Plasma from mice and dogs were analyzed for CK activity using standard protocols (Pointe Scientific, Thermo Fisher Scientific).
Studies were performed in two phases. In the first phase, GRMD (n = 4, female, 7 months old) were dosed PO daily with vehicle for 2 weeks, followed by a suspension of EDG-5506 (3 mg/kg daily for 2 days, then 1 mg/kg daily for 2 weeks) and then with vehicle for 2 weeks. Blood was drawn at regular intervals (2–3 draws during the vehicle baseline, 5–8 draws during the dosing period, and 2 draws during the vehicle washout). In a separate dosing period, the same 4 dogs (10 months old) were administered vehicle for 14 days with regular blood draws (6–9 for each dog across the 14-day period). CK activity (Pointe Scientific, Thermo Fisher Scientific) was measured from plasma. In the second phase, the same 4 dogs (15 months old) were fitted with a collar-bound activity monitor (Fitbark 2, Fitbark Inc.) as described previously ([42]), and baseline activity was recorded for 27 days before daily oral gavage with vehicle for 22 days. Three dogs were then dosed in a similar pattern to phase 1 with EDG-5506 (2 mg/kg for 4 days and then 2 mg/kg every other day for 7 days). The fourth dog was dosed with vehicle over the same period. […] Average daily activity (“Fitbark points”) and time performing various activities (play, rest, active) were recorded.

[2] = system: fast rabbit psoas muscle fibers; experiment: Skinned fiber force, rabbit psoas; settings: Oryctolagus cuniculus, maximal force at pCa 4.5, read-out: IC50, force in single skinned fibers
Experimental: (§1) Measurement of isometric force in skinned fibers from rabbit psoas, rat soleus, and rat cardiac trabeculae were performed as described previously ([65]) with an 802D fiber system (Aurora Scientific). Muscle bundles were thawed from –80°C and placed in relaxing solution. Single fibers were transferred to the testing apparatus with steel pins connected to a force transducer and motor (model 403A and 322C, Aurora Scientific), and collodion glue was applied. Temperature was set to 15°C for skeletal fibers and 30°C for rat cardiac trabeculae. The wells of the 802D were filled with different ratios of relaxing and activating pCa solutions as detailed previously ([65]). All control solutions contained 1% final DMSO. Traces were compared between control and compound runs to evaluate isometric force and calcium sensitivity.

[3] = system: Neonatal Rat (P1) myofibrils; experiment: Myofibril ATPase, neonatal rat; format: biochemical
Experimental: (§2) Myofibrils were prepared from various animals and tissues: rabbit psoas muscle and porcine cardiac muscle were purchased from Pel-Freez Biologicals. Human bicep and soleus muscle were purchased from BioIVT, and neonatal rat muscle was obtained in house. All myofibrils were prepared using published methods ([21]).
(§3) A lactate dehydrogenase/pyruvate kinase enzyme-coupled system ([62]) was used to monitor ATP hydrolysis rates in various muscle preparations. Rabbit psoas myofibrils were used for high-throughput screening at pCa 6.25 at 0.25 mg/mL. A multidrop cassette (Thermo Fisher Scientific) dispensed 10 μL of the coupled enzyme system, calcium, and myofibrils to 10 μL ATP, NADH and PEP to initiate the reaction prior to reading on a plate reader (Envision, Perkin Elmer) for 10 minutes per plate at room temperature. Hits were reconfirmed, and secondary assays were used to evaluate selectivity, including bovine cardiac myofibrils (pCa 5.86) and enzyme coupled hits with a hexokinase screen (Sigma-Aldrich).

EGFR(L858R) = target: T1, EGFR(L858R) (Homo sapiens, UniProt P00533, L858R); experiment: KINOMEscan scanEDGE; format: binding; settings: 20 uM
T1 construct: purchased Eurofins DiscoverX (KINOMEscan; SAFETYscan E/IC50 ELECT)

[4] = system: rat cardiac muscle fibers; experiment: Skinned fiber force, rat cardiac trabeculae; design: dose or concentration left out as unconfirmed; settings: rat cardiac trabecular strips
Experimental: as §1

PIM1 = target: T2, PIM1 (Homo sapiens, UniProt P11309); experiment: KINOMEscan scanEDGE; format: binding; settings: 20 uM
T2 construct: purchased Eurofins DiscoverX (KINOMEscan; SAFETYscan E/IC50 ELECT)
Experimental: (§4) The specificity of EDG-5506 for fast skeletal myosin over other, unrelated proteins was confirmed using two off-target binding and activity screens. […] A second off-target panel (SAFETYscan E/IC50 ELECT, Eurofins DiscoverX) tested in vitro enzyme activity against 78 proteins, including GPCR, ion channel, kinases, nuclear hormone receptors, and transporters. In all assays, the IC50 of EDG-5506 was more than 10 μM (Supplemental Data File 1).

FGFR2 = target: T3, FGFR2 (Homo sapiens, UniProt P21802); experiment: KINOMEscan scanEDGE; format: binding; settings: 20 uM
T3 construct: purchased Eurofins DiscoverX (KINOMEscan; SAFETYscan E/IC50 ELECT)
Experimental: as §4

EPHA2 = target: T4, EPHA2 (Homo sapiens, UniProt P29317); experiment: KINOMEscan scanEDGE; format: binding; settings: 20 uM
T4 construct: purchased Eurofins DiscoverX (KINOMEscan; SAFETYscan E/IC50 ELECT)
Experimental: as §4

MLK1 = target: T5, MLK1 (Homo sapiens, UniProt P80192); experiment: KINOMEscan scanEDGE; format: binding; settings: 20 uM
T5 construct: purchased Eurofins DiscoverX (KINOMEscan; SAFETYscan E/IC50 ELECT)
Experimental: as §4

DCAMKL1 = target: T6, DCAMKL1 (Homo sapiens, UniProt O15075); experiment: KINOMEscan scanEDGE; format: binding; settings: 20 uM
T6 construct: purchased Eurofins DiscoverX (KINOMEscan; SAFETYscan E/IC50 ELECT)
Experimental: as §4

PCTK1 = target: T7, PCTK1 (Homo sapiens, UniProt Q00536); experiment: KINOMEscan scanEDGE; format: binding; settings: 20 uM
T7 construct: purchased Eurofins DiscoverX (KINOMEscan; SAFETYscan E/IC50 ELECT)
Experimental: as §4

PIK3C2B = target: T8, PIK3C2B (Homo sapiens, UniProt O00750); experiment: KINOMEscan scanEDGE; format: binding; settings: 20 uM
T8 construct: purchased Eurofins DiscoverX (KINOMEscan; SAFETYscan E/IC50 ELECT)
Experimental: as §4

BTK = target: T9, BTK (Homo sapiens, UniProt Q06187); experiment: KINOMEscan scanEDGE; format: binding; settings: 20 uM
T9 construct: purchased Eurofins DiscoverX (KINOMEscan; SAFETYscan E/IC50 ELECT)
Experimental: as §4

[5] = target: T10, TYK2(JH1domain-catalytic) (Homo sapiens, UniProt P29597); experiment: KINOMEscan scanEDGE; format: binding; settings: 20 uM
T10 construct: TYK2(JH1domain-catalytic); purchased Eurofins DiscoverX (KINOMEscan; SAFETYscan E/IC50 ELECT)
Experimental: as §4

AKT1 = target: T11, AKT1 (Homo sapiens, UniProt P31749); experiment: KINOMEscan scanEDGE; format: binding; settings: 20 uM
T11 construct: purchased Eurofins DiscoverX (KINOMEscan; SAFETYscan E/IC50 ELECT)
Experimental: as §4

MKNK1 = target: T12, MKNK1 (Homo sapiens, UniProt Q9BUB5); experiment: KINOMEscan scanEDGE; format: binding; settings: 20 uM
T12 construct: purchased Eurofins DiscoverX (KINOMEscan; SAFETYscan E/IC50 ELECT)
Experimental: as §4

KIT(V559D,T670I) = target: T13, KIT(V559D,T670I) (Homo sapiens, UniProt P10721, T670I/V559D); experiment: KINOMEscan scanEDGE; format: binding; settings: 20 uM
T13 construct: purchased Eurofins DiscoverX (KINOMEscan; SAFETYscan E/IC50 ELECT)
Experimental: as §4

CSNK1G2 = target: T14, CSNK1G2 (Homo sapiens, UniProt P78368); experiment: KINOMEscan scanEDGE; format: binding; settings: 20 uM
T14 construct: purchased Eurofins DiscoverX (KINOMEscan; SAFETYscan E/IC50 ELECT)
Experimental: as §4

JNK2 = target: T15, JNK2 (Homo sapiens, UniProt P45984); experiment: KINOMEscan scanEDGE; format: binding; settings: 20 uM
T15 construct: purchased Eurofins DiscoverX (KINOMEscan; SAFETYscan E/IC50 ELECT)
Experimental: as §4

KIT = target: T16, KIT (Homo sapiens, UniProt P10721); experiment: KINOMEscan scanEDGE; format: binding; settings: 20 uM
T16 construct: purchased Eurofins DiscoverX (KINOMEscan; SAFETYscan E/IC50 ELECT)
Experimental: as §4

PIM3 = target: T17, PIM3 (Homo sapiens, UniProt Q86V86); experiment: KINOMEscan scanEDGE; format: binding; settings: 20 uM
T17 construct: purchased Eurofins DiscoverX (KINOMEscan; SAFETYscan E/IC50 ELECT)
Experimental: as §4

ERBB4 = target: T18, ERBB4 (Homo sapiens, UniProt Q15303); experiment: KINOMEscan scanEDGE; format: binding; settings: 20 uM
T18 construct: purchased Eurofins DiscoverX (KINOMEscan; SAFETYscan E/IC50 ELECT)

Human Soleus myofibrils = experiment: Myofibril ATPase, human soleus; format: biochemical
Experimental: as §2, §3

T8 sequence (O00750 whole entry): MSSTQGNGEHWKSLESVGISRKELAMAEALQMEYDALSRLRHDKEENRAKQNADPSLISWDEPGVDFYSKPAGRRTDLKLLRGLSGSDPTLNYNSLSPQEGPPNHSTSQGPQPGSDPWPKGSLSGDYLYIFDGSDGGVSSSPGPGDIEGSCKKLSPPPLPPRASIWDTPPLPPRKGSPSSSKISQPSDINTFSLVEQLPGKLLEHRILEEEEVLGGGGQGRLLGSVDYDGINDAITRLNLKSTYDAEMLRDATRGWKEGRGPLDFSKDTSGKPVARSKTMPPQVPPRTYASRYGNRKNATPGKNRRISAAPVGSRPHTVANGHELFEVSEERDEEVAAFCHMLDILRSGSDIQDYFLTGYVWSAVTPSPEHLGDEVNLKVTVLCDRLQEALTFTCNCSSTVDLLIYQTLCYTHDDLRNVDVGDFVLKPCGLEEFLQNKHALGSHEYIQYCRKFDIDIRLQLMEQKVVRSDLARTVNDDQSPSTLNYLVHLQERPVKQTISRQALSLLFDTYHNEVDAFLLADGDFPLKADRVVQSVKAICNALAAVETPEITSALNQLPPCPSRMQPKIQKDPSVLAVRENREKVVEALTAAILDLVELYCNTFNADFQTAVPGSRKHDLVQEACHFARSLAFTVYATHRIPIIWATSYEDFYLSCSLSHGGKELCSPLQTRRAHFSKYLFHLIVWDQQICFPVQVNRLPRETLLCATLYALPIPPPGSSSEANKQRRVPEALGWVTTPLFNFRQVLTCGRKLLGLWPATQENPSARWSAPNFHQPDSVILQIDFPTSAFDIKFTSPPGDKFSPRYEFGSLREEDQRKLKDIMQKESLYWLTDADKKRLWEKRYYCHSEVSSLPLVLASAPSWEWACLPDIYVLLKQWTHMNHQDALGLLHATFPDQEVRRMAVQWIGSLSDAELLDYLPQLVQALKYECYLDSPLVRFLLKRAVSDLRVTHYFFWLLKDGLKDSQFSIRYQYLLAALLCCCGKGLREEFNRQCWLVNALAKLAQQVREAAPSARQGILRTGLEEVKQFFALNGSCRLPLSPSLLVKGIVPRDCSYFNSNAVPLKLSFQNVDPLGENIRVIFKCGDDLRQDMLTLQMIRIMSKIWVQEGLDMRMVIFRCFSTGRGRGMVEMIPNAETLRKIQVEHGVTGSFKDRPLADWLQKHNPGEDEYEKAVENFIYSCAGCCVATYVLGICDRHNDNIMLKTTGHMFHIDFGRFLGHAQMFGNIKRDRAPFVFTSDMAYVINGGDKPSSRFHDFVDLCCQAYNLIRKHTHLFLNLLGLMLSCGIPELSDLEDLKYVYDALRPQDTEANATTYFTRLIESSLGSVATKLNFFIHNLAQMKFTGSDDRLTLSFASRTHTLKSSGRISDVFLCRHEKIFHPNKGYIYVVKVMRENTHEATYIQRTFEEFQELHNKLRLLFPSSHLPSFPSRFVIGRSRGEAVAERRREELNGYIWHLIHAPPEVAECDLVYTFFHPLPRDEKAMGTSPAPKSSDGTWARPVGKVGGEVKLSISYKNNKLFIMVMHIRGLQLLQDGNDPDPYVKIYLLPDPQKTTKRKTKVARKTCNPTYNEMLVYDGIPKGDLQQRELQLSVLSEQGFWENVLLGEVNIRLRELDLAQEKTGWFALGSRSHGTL
T14 sequence (P78368 whole entry): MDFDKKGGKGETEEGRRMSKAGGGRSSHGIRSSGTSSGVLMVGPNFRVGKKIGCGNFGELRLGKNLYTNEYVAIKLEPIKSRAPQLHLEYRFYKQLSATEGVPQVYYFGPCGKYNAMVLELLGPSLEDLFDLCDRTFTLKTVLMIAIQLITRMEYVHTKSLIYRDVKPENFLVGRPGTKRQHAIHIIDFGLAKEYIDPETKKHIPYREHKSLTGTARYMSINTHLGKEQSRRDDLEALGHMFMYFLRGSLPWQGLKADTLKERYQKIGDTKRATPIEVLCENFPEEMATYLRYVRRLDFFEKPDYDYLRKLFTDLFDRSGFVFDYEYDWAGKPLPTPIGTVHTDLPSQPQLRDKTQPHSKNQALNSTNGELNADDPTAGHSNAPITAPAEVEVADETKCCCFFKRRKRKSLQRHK
T4 sequence (P29317 24-976): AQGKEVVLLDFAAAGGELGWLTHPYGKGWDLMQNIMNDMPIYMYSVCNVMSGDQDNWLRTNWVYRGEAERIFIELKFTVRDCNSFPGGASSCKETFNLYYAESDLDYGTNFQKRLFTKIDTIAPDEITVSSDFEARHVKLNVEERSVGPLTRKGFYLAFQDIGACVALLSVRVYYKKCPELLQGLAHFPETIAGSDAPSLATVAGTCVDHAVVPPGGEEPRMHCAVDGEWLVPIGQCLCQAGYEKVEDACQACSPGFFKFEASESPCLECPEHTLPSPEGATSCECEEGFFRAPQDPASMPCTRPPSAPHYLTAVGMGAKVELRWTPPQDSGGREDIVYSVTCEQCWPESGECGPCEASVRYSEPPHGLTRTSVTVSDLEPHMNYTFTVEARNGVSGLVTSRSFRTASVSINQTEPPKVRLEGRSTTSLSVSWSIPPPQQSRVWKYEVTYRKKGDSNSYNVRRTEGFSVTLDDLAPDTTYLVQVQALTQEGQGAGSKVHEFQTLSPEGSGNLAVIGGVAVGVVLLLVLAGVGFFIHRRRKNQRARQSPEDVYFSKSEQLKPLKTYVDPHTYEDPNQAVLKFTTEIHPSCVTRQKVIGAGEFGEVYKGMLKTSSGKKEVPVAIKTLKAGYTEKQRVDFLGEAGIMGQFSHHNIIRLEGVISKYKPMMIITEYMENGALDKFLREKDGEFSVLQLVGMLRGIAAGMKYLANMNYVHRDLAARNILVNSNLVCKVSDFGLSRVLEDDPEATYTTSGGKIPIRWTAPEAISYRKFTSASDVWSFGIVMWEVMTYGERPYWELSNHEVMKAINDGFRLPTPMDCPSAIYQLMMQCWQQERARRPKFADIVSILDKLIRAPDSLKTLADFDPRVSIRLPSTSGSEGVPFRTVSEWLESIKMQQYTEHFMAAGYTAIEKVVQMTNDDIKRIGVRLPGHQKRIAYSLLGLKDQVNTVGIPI
T9 sequence (Q06187 whole entry): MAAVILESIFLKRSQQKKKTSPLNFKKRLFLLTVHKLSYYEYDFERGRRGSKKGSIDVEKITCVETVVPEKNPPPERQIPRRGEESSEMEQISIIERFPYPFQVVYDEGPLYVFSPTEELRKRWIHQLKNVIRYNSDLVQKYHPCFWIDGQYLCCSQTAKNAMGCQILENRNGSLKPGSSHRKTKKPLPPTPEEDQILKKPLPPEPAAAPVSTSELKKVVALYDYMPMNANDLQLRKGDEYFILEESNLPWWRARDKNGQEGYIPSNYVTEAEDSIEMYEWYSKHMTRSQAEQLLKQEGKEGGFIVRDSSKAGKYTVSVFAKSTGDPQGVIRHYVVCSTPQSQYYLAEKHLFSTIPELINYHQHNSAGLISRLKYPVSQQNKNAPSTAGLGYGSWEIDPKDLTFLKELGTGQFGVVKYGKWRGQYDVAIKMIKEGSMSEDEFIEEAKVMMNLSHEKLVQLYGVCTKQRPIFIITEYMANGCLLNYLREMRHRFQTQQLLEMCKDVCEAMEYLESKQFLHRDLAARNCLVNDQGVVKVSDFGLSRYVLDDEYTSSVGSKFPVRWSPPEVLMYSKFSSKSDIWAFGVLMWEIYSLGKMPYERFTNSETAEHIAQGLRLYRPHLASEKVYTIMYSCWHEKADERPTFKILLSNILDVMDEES
T18 sequence (Q15303 26-1308): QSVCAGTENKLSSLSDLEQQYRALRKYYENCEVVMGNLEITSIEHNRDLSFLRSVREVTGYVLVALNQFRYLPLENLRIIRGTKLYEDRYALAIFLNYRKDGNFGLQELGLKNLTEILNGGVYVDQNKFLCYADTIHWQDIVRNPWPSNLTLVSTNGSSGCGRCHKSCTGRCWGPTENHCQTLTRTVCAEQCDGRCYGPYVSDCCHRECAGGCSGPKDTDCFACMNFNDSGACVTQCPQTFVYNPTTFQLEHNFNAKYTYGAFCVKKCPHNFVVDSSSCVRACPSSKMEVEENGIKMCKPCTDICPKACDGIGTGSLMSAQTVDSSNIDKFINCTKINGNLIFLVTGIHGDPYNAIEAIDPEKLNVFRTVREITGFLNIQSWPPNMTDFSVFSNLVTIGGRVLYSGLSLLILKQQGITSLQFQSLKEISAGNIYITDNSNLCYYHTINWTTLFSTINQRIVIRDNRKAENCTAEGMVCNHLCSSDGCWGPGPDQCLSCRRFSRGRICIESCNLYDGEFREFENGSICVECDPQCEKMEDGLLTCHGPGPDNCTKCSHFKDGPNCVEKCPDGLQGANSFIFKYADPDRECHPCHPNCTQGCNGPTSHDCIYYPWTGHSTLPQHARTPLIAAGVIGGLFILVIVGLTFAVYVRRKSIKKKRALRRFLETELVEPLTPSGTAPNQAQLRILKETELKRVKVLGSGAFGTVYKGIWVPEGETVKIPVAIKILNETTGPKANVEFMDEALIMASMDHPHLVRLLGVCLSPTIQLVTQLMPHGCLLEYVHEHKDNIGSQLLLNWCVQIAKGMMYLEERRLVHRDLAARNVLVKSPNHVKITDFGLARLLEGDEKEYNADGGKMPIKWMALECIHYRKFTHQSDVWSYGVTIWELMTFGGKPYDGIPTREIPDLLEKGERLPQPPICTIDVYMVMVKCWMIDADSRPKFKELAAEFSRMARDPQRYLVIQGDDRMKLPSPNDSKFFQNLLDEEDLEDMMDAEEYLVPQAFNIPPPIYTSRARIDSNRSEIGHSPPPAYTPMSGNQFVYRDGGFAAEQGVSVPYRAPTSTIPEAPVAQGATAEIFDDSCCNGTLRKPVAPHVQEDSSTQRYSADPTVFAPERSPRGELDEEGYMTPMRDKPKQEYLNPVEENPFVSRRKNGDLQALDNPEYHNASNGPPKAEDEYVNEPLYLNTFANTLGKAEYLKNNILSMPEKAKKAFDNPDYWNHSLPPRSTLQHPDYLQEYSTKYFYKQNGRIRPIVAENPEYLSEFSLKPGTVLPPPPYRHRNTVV

## O=c1ccc(-c2cnc(OCC(F)(F)F)nc2)nn1Cc1cncc(F)c1 [EDG-5506]
[1]
  decrease in CK: more than 50%
[2]
  pIC50: 6.15
[3]; neonatal rat (P1) myofibrils
  Maximum Inhibition (%): 96%
[3]; neonatal rat (P1), 100% neonatal/embryonic MHC
  pIC50: 6.70
EGFR(L858R)
  binding, % of control: 95 % of control
[4]
  effect on force, cardiac muscle fibers: no effect
PIM1
  binding, % of control: 97 % of control
FGFR2
  binding, % of control: 84 % of control
EPHA2
  binding, % of control: 58 % of control
MLK1
  binding, % of control: 98 % of control
DCAMKL1
  binding, % of control: 76 % of control
PCTK1
  binding, % of control: 100 % of control
PIK3C2B
  binding, % of control: 100 % of control
BTK
  binding, % of control: 93 % of control
[5]
  binding, % of control: 87 % of control
AKT1
  binding, % of control: 100 % of control
MKNK1
  binding, % of control: 85 % of control
KIT(V559D,T670I)
  binding, % of control: 100 % of control
CSNK1G2
  binding, % of control: 96 % of control
JNK2
  binding, % of control: 96 % of control
KIT
  binding, % of control: 98 % of control
PIM3
  binding, % of control: 99 % of control
ERBB4
  binding, % of control: 93 % of control
Human Soleus myofibrils; human soleus myofibrils
  Maximum Inhibition (%): 79%
Human Soleus myofibrils; human soleus, 66% Type I, 33% IIa, IIx, at pCa 50
  pIC50: 5.96
